According to the supplement of paper PMC3974653:
Counter-ions that a name gives are not always drawn.

Each compound was assayed on MTT (mouse pheochromocytoma) (assay: IC50 of cell viability (ATP content)). Conditions: (24 or 48 h).
In short: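 CellTiter-Glo ATP luminescence, read after 15 minutes, was used to assess MTT mouse pheochromocytoma cells treated for 24 or 48 hrs with library compounds (final 0.5 nM to 46 µM, 8 concentrations). The cells had been plated at 5 µl of 200,000 cells/ml per well in white 1536-well plates in DMEM with 5% FBS and 1% horse serum and cultured overnight at 37°C, 5% CO2. Normalisation set positive-control wells to 100% and DMSO wells to 0%. The IC50 was then determined by four-parameter logistic fitting.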

IC50 of cell viability [µM]	SMILES
> 46	CNC1CC(N)[C@H](O)[C@@H](O[C@@H]2OC(CO)C3OC4(OC(C(N)CO)C(O)C(O)C4O)O[C@@H]3[C@H]2O)C1O (stereo partly specified) [HYGROMYCIN B]
> 46	O.[Na+].CCOC1=CC=C2C=CC=CC2=C1C(=O)N[C@H]3[C@@H]4SC(C)(C)[C@@H]([N@@]4C3=O)C([O-])=O [Nafcillin sodium salt monohydrate]
> 46	CCCCCOc1ccc(C2SC(=O)NC2=O)cc1OCC (stereo unspecified) [Risarestat]
> 46	CNC1CCCN(c2c(F)cc3c(=O)c(C(=O)O)cn(C4CC4)c3c2OC)C1 (stereo unspecified) [BALOFLOXACIN HYDRATE]
> 46	Nc1cccc2c1CN(C1CCC(=O)NC1=O)C2=O (stereo unspecified) [LENALIDOMIDE]
> 46	C#CCN[C@@H]1CCc2ccccc21 [RASAGILINE MESYLATE]
> 46	C[C@@]12CC[C@H]3[C@@H](CC\C4=C\C(=O)CC[C@@]34C)[C@H]1CC[C@H]2C(=O)CO [Deoxycorticosterone]
> 46	O=C(O)c1cc(O)nc(O)n1 [Orotic acid]
> 46	CCC(C)C(N)C(=O)O (stereo unspecified) [ISOLEUCINE]
> 46	CO/N=C(\C(=O)N[C@@H]1C(=O)N2C(C(=O)O)=C(Cn3nnc(C)n3)CS[C@H]12)c1csc(N)n1 [CEFTERAM]
> 46	COc1ccc(OC)c([C@H](O)CNC(=O)CN)c1 [Midodrine hydrochloride]
> 46	Nc1nc(=O)n([C@@H]2CS[C@H](CO)O2)cc1F [EMTRICITABINE]
> 46	Cc1c(-c2ccc(O)cc2)n(Cc2ccc(OCCN3CCCCCC3)cc2)c2ccc(O)cc12 [Bazedoxifene]
> 46	O=C(O)/C=C/C(=O)Nc1ccc([S+](=O)([O-])Nc2nccs2)cc1 [Maleilsulfatiazol]
> 46	CC1CNc2c(cccc2S(=O)(=O)NC(CCCNC(=N)N)C(=O)N2CC[C@@H](C)C[C@@H]2C(=O)O)C1 (stereo partly specified) [ARGATROBAN]
> 46	Cl.N[C@@H]1C(O)OC(CO)C(O)C1O (stereo partly specified) [GLUCOSAMINE HYDROCHLORIDE]
> 46	C=CC(=O)Nc1cc2c(Nc3ccc(F)c(Cl)c3)ncnc2cc1OCCCN1CCOCC1 [Canertinib]
> 46	CC(C)c1ncc([N+](=O)[O-])n1C [IPRONIDAZOLE]
> 46	O=S(=O)([O-])Oc1ccc(C(c2ccc(OS(=O)(=O)[O-])cc2)c2ccccn2)cc1 [Picosulfate sodium]
> 46	O.O=C([O-])CC([S][Au])C(=O)[O-].[Na+].[Na+] (stereo unspecified) [Sodium aurothiomalate hydrate]
> 46	CCCCOc1cc(C(=O)NCCN(CC)CC)c2ccccc2n1 [Dibucaine]
> 46	Cc1ccc(Nc2c(F)cccc2Cl)c(CC(=O)O)c1 [Lumiracoxib]
> 46	Cc1ccc(/C(=C\CN2CCCC2)c2ccccn2)cc1 [trans-TRIPROLIDINE]
> 46	CCCCCCCCCCCCCCCCC(C(=O)O)C(O)(CC(=O)O)C(=O)O (stereo unspecified) [AGARICINUM]

IC50 of cell viability [µM]	SMILES
> 46	C[C@H](O)[C@H]1[C@@H]2[C@@H](C)\C(=C(/N2C1=O)C(O)=O)S[C@@H]3CN[C@H](C3)C(=O)N(C)C [Meropenem]
> 46	OCc1c[nH]c2ccccc12 [Indole-3-carbinol]
> 46	COc1ccc2cc(CCC(C)=O)ccc2c1 [Nabumetone]
> 46	Cc1ccc([S+](=O)([O-])NC(=O)NN2C[C@H]3CCC[C@@H]3C2)cc1 [Gliclazide]
> 46	CC(C)Cn1cnc2c1c(=O)n(C)c(=O)n2C [ISBUFYLLINUM]
> 46	CN1C[C@@H]2C[C@H]1CN2c1cc2c(cc1F)c(=O)c(C(=O)O)cn2C1CC1 [Danofloxacin mesylate]
> 46	NC[C@@H]1O[C@@H](O[C@H]2[C@@H](O)[C@H](O[C@@H]3O[C@@H](CO)[C@H](O)[C@H](N)[C@@H]3O)[C@@H](N)C[C@H]2N)[C@H](O)[C@H](O)[C@@H]1O [Kanamycin A sulfate]
> 46	OCC1O[C@H](OC2C(CO)O[C@@](O)(CO)C2O)C(O)C(O)C1O (stereo partly specified) [LACTULOSE]
> 46	CCCCNc1c(C(=O)OCC)c(C)nc2c1cnn2CC [Tracazolate hydrochloride]
> 46	O=C(N/N=C\c1ccc([N+](=O)[O-])o1)c1ccc(O)cc1 [Nifuroxazide]
> 46	Cc1ccccc1/N=N/c1ccc(/N=N/c2c(O)ccc3ccccc23)c(C)c1 [SCARLET RED]
> 46	CCCC[C@@H](CC)COC(=O)C[C@H](C(=O)OC[C@H](CC)CCCC)S(=O)(=O)[O-] [Dioctyl sulfosuccinate sodium salt]
> 46	Cc1cccc(C)c1OCC(C)N.Cl (stereo unspecified) [Mexiletene hydrochloride]
> 46	CC1(C)SC2C(N3C(=O)C(c4ccccc4)NC3(C)C)C(=O)N2C1C(=O)[O-].[K+] (stereo unspecified) [HETACILLIN POTASSIUM]
> 46	CCCCN1CC(O)C(O)C(O)C1CO (stereo unspecified) [MIGLUSTAT]
> 46	C\C1=N\C2=C(C=C(Cl)C=C2)[S+]([O-])(=O)N1 [DIAZOXIDE]
> 46	N=C(NCCCCCCNC(=N)NC(=N)Nc1ccc(Cl)cc1)NC(=N)Nc1ccc(Cl)cc1 [Chlorhexidine]
> 46	CCOC(=O)Cc1ccc(-c2ccccc2)cc1 [FELBINAC ETHYL]
> 46	CC[N+](CC)(CC)CCOc1ccc(/C=C/c2ccccc2)cc1 [MG 624]
> 46	CCCNC(C)(C)COC(=O)c1ccccc1 [Meprylcaine hydrochloride]
> 46	c1ccc(CCNc2nc(-c3ccccc3)cs2)cc1 [Fanetizole]
> 46	NCc1ccccc1Sc1ccccc1CO [Bipenamol hydrochloride]
> 46	C1CNCCN1 [Piperazine]

SMILES	IC50 of cell viability [µM]
c1ccc(C2(N3CCCC3)CCCCC2)cc1 [Rolicyclidine]	> 46
CCOC(=O)C1(c2ccccc2)CCCN(C)CC1 (stereo unspecified) [Ethoheptazine hydrochloride]	> 46
O=C(O[C@H]1C[C@H]2CC[C@@H](C1)[N+]21CCCC1)C(O)(c1ccccc1)c1ccccc1 [TROSPIUM CHLORIDE]	> 46
OC1=CC2=C([NH]C=C2CCCCN3CC\C(=C/C3)C4=CC=CC=C4)C=C1 [Roxindole hydrochloride]	> 46
Cc1c(N)nc([C@@H](CC(N)=O)NC[C@H](N)C(N)=O)nc1C(=O)N[C@H](C(=O)N[C@H](C)[C@H](O)[C@H](C)C(=O)N[C@@H](C(=O)NCCc1nc(-c2nc(C(=O)NCCC[S+](C)C)cs2)cs1)[C@H](C)O)[C@H](O[C@@H]1O[C@@H](CO)[C@@H](O)[C@H](O)[C@@H]1O[C@H]1O[C@H](CO)[C@H](O)[C@H](OC(N)=O)[C@@H]1O)c1c[nH]cn1 [Bleomycin Sulfate]	> 46
C[C@]12C/C(=C/O)C(=O)C[C@@H]1CC[C@@H]1[C@@H]2CC[C@@]2(C)[C@H]1CC[C@]2(C)O [Oxymetholone]	> 46
O=[P@@]1(NCCCl)OCCCN1CCCl [Ifosfamide]	> 46
CC(C)[N+](C)(CCC(C(N)=O)(c1ccccc1)c1ccccc1)C(C)C [Isopropamide iodide]	> 46
COC(=O)\C1=C\CCN(C)C1 [ARECOLINE]	> 46
Cc1ccc(O)cc1.Cc1cccc(O)c1.Cc1ccccc1O [m-Cresol and o-cresol and p-cresol mixture]	> 46
O=C(O)c1nn(Cc2ccc(Cl)cc2Cl)c2ccccc12 [Lonidamine]	> 46
CCCCCCC(=O)CCCCCC/C=C/C[C@@H](O)[C@H](O)[C@@](N)(CO)C(=O)O [Myriocin from Mycelia sterilia]	> 46
C[C@]12CC[C@H](O)C[C@H]1CCC1C2CC[C@]2(C)[C@@H](c3ccc(=O)oc3)C[C@H]3O[C@]132 (stereo partly specified) [BUFOGENIN]	> 46
Nc1ccc(/N=N/c2ccccc2)cc1 [4-Aminoazobenzene]	> 46
CNC(C)C(O)c1ccc(O)cc1 (stereo unspecified) [P-HYDROXYEPHEDRINE HYDROCHLORIDE]	> 46
CC1=C(C\C2=N\CCN2)C3=C(S1)C=CC=C3.OC(=O)C(O)=O [Benazoline oxalate]	> 46
O=C(NC(=O)c1c(F)cccc1F)Nc1ccc(Cl)c(Oc2ncc(C(F)(F)F)cc2Cl)c1 [Fluazuron]	> 46
CCCCCCCCCC(=O)O[C@H]1CC[C@H]2[C@@H]3CCC4=CC(=O)CC[C@]4(C)[C@H]3CC[C@]12C [TESTOSTERONE DECANOATE]	> 46
COC(=O)C1C(OC(=O)c2ccccc2)CC2CCC1N2C (stereo unspecified) [Allococaine]	> 46
CN1C2CCC1CC(OC(=O)c1cc(Cl)cc(Cl)c1)C2 (stereo unspecified)	> 46
c1cc2c(c(N3CCNCC3)c1)OCCO2 [ELTOPRAZINUM]	> 46
Oc1noc2c1CCNC2 [4,5,6,7-TETRAHYDROISOXAZOLO[5,4-c]PYRIDIN-3-OL]	> 46
Brc1ccccc1-c1ccccc1 [2-Bromobiphenyl]	> 46
O=[S+]([O-])(c1ccc(Cl)cc1)c1ccc(Cl)cc1 [4,4'-Dichlorodiphenyl sulfone]	> 46
